Where two headings read alike, the source gives them in different places.
Tests used:
[1] = target: T1, α2-GABAA receptor (Homo sapiens, UniProt P18507+P47869); test: Radioligand (3H-flunitrazepam) competitive binding assay at the BZD site
T1 construct: expressed in transfected cells
Description: (§1) An α subunit, a β subunit, and a γ subunit are essential for the formation of a complete functional GABAA receptor. […] The α1-GABAAR-HEK293 cell model simultaneously expressed the α1 subunit (protein sequence available in GenBank with an accession No.: NM_000806.5), the β3 subunit (protein sequence available in GenBank with an accession No.: NM_000814.5), and the γ2 subunit (protein sequence available in GenBank with an accession No.: NM_000816.3). The α2-GABAAR-HEK293 cell model simultaneously expressed the α2 subunit (protein sequence available in GenBank with an accession No.: NM_000807.4), the β3 subunit (protein sequence available in GenBank with an accession No.: NM_000814.5), and the γ2 subunit (protein sequence available in GenBank with an accession No.: NM_000816.3).
(§2) The above cell lines were subcultured. The α2-GABAAR-HEK293 cells were expanded for assay of the benzodiazepine (BZD) site affinity of compounds for GABAA receptors.
The affinity of the compounds for the α2-GABAA receptor was determined by competing with ^3H-flunitrazepam (isotope ^3H-labelled flunitrazepam) for binding to the BZD site on the membrane proteins of HEK293 cells stably expressing the human α2-GABAA receptor.
Membrane preparation: The cells were suspended in 50 mM Tris-HCl buffer (pH=7.4), homogenized 10 times (20 s for each time) with a homogenizer on ice, and then centrifuged at 4° C. at 1000 g for 10 min. The supernatant was taken. The above steps were repeated. The supernatant was centrifuged (33800 g; Thermo, rotor: A27-8×50) at 4° C. for 60 min. The pellet was resuspended in Tris buffer (50 mM Tris-HCl, 10 mM MgCl2, 0.5 mM EDTA, and 10% glycerol). The protein content was determined (BCA (bicinchoninic acid) protein quantification assay based on the copper ion reduction method, with a BCA kit purchased from Pierce (Annoron (Beijing) Biotechnology Co., Ltd.)), and 1 mL aliquots were prepared and stored at −80° C.
Radioligand competitive binding assay: This assay was performed in a 200 μL system (96-well plate) containing 100 μL of cell membranes. The concentration of ^3H-flunitrazepam was 1 nM, and the concentrations of the test compounds were in the range of […]. Flumazenil was used as a control. To each low control (LC) well was added 1 μL of 2 mM flumazenil (the final concentration of 10 μM), and to each high control (HC) well was added 1 μL of dimethyl sulfoxide. The final concentration of the target membrane protein was […]. All sample stock solutions of test compounds were 10 mM solutions in dimethyl sulfoxide. All the samples were diluted to a concentration of 0.2 mM with dimethyl sulfoxide, and then subjected to a 4-fold serial dilution to give a total of 8 working concentration gradients. The 96-well plate was sealed with a plate sealing membrane and then incubated on a shaker at room temperature for 1 h. Meanwhile, a GF/C filter plate was soaked in a plate soaking buffer (0.3% PEI (polyethyleneimine, purchased from: Sigma-Aldrich, model: P314), stored at 4° C.) for at least 0.5 h. After the binding incubation was completed, the cells were harvested onto the GF/C filter plate using a cell harvester and washed 4 times with a washing buffer (50 mM Tris-HCl, pH 7.4, stored at 4° C.). After drying in an oven at 50° C. for 1 h, the dried GF/C filter plate was bottom-sealed. The residual radioactivity on the filter membrane was detected by liquid scintillation counting. Scintillation fluid was added at 50 µL/well, and then the plate was sealed. Readings were taken using Microbeta^2 (microplate counter, purchased from: PerkinElmer, model: CNLL0153). The inhibitory activity of the test samples on the binding of ^3H-flunitrazepam to the GABAA receptor membrane protein was calculated.

[2] = target: T1, α2-GABAA receptor; test: Whole-cell patch-clamp electrophysiological test of positive allosteric modulation, α2-GABAAR-HEK293 cells; format: cell-based; conditions: read-out: Positive allosteric modulation activity on α2-GABAAR
Description: as §1, §2
(§3) The positive regulation activity of the test drugs on the α1-GABAA receptor and the α2-GABAA receptor was detected by the electrophysiological method. The specific method was as follows:
(§4) Compound concentration setting: the final concentration of the compounds used for screening was 100 nM. […] The components of the extracellular solution (ECS) for electrophysiology were as follows: 150 mM NaCl, 5 mM KCl, 2.5 mM CaCl2, 1 mM MgCl2, 10 mM HEPES, and 10 mM glucose (pH 7.4); the formulation of the intracellular solution (ICS) of electrodes for electrophysiology was as follows: 140 mM CsCl, 11 mM EGTA, 10 mM HEPES, 2 mM CaCl2, 1 mM MgCl2, 4 mM MgATP, and 2 mM TEA (pH 7.3). GABA (γ-aminobutyric acid) powder was prepared into a mother liquor with pure water, which was then diluted in ECS; the compounds were first prepared into 4 mM mother liquors with dimethyl sulfoxide and then gradually diluted to corresponding concentrations in GABA-ECS. The solutions were all prepared freshly prior to the electrophysiological test.
(§5) Electrophysiological signal acquisition was performed using an EPC 10 amplifier and PatchMaster software (HEKA) or an Axon700B amplifier and Clampex software (AXON).
(§6) The recording electrode was made by pulling borosilicate glass, with an electrode resistance of 4-6 MΩ. Extracellular administration was performed using the ALA-VC-8PG™ system. A single, independently growing cell was selected. After the glass electrode formed a good seal with the cell, the membrane was ruptured to form the whole-cell configuration. The cell membrane potential was clamped at −60 mV and recorded in Gap-free mode. During the test, the extracellular solution was first applied extracellularly for about 20 s. After the baseline (Iprebaseline) stabilized, the extracellular solution was switched to GABA-ECS. At this time, the current caused by GABA (Igaba) could be detected. After about 10-20 s, when the current stabilized, the extracellular solution was switched to a mixed solution of the compound and GABA-ECS. At this point, the current caused by both the compound and GABA (Itreatment) could be detected. Finally, the solution was switched to the extracellular solution, and the test was terminated after recording for 20-40 s.
(§7) The current values at each stage were calculated based on the average value of the current after stabilization under the corresponding conditions. We defined the control current as Igaba−Iprebaseline, and the current after compound treatment as Itreatment−Iprebaseline. The allosteric modulation activity of the compounds was expressed as a percentage, calculated by the following formula: functional activity=[(Itreatment−Igaba)/(Igaba−Iprebaseline)]×100%.

[3] = system: Chinese hamster ovary cells (CHO-WBL cells); test: In vitro micronucleus assay; format: cell-based; conditions: 3 h with S9, 3 h without S9, 24 h without S9, overall judgment positive/negative
Description: The cell stock solution was stored in liquid nitrogen. The karyotype of each batch of cell stock solution was identified, and tests confirmed that it was free from mycoplasma contamination. The number of passages after cell cloning will not exceed 15.
Immediately before use, the S9 homogenate was thawed, and the components of the S9 metabolic activation system were mixed in the proportions shown in Table 2 below.
Dose exploration experiment: In the dose exploration experiment, 8 administration concentrations were established in each administration treatment series. For each concentration of the test substance, 1 well of cells was set up.

[4] = target: T2, α1-GABAA receptor (Homo sapiens, UniProt P14867+P18507); test: Whole-cell patch-clamp electrophysiological test of positive allosteric modulation, α1-GABAAR-HEK293 cells; format: cell-based; conditions: read-out: Positive allosteric modulation activity on α1-GABAAR
T2 construct: expressed in transfected cells
Description: as §1, §2, §3, §4, §5, §6, §7

[5] = membranes of HEK293 cells stably expressing human α2-GABAA receptor (α2β3γ2), 1 nM 3H-flunitrazepam, Ki calculated from IC50, read-out: α2 Ki
[6] = compound 100 nM, GABA 0.10-0.11 M [sic] (about EC70.8), normalised to positive compound CVL-865 (=100%)
[7] = compound 100 nM, GABA about EC2-4, normalised to positive compound CVL-865 (=100%), negative value = reverse allosteric modulation

Row | Ki [1, 5] [nM] | activation at 0.1 µM [2, 6] [%] | activation at 0.1 µM [4, 7] [%] | SMILES | Ki [1] [nM] | activation at 0.1 µM [2] [%] | Results of in vitro micronucleus assay [3] | activation at 0.1 µM [4] [%]
1 | 12 | 143 | 6 | CCc1cn2cc(-c3cc(-c4cnnc5c4ncn5CC)ccc3F)c(OC)cc2n1 [Example 30, 7-Ethyl-4-(3-(2-ethyl-7-methoxyimidazo[1,2-a]pyridin-6-yl)-4-fluorophenyl)-7H-imidazo[4,5-c]pyridazine] |  |  |  | 
2 | 11.8 | 89 | 49 | CCn1cnc2c(-c3ccc(F)c(-c4cn5cc(C6CCOCC6)nc5cc4OC)c3)cnnc21 [Example 36, 7-Ethyl-4-(4-fluoro-3-(7-methoxy-2-(tetrahydro-2H-pyran-4-yl)imidazo[1,2-a]pyridin-6-yl)phenyl)-7H-imidazo[4,5-c]pyridazine] |  |  |  | 
3 | 2.96 | 100 | 47 | CCn1cnc2c(-c3ccc(F)c(-c4ccn5c(C)cnc5c4COC)c3)cnnc21 [Example 54, 7-Ethyl-4-(4-fluoro-3-(8-(methoxymethyl)-3-methylimidazo[1,2-a]pyridin-7-yl)phenyl)-7H-imidazo[4,5-c]pyridazine] |  |  |  | 
4 | 8.13 | 95 | 25 | CCn1cnc2c(-c3ccc(F)c(-c4ccn5c(C6CCOCC6)nnc5c4OC)c3)cnnc21 [Example 34, 7-Ethyl-4-(4-fluoro-3-(8-methoxy-3-(tetrahydro-2H-pyran-4-yl)-[1,2,4]triazolo[4,3-a]pyridin-7-yl)phenyl)-7H-imidazo[4,5-c]pyridazine] |  |  |  | 

The remaining lines, values behind:

Row | SMILES | Ki [1, 5] [nM] | activation at 0.1 µM [2, 6] [%] | activation at 0.1 µM [4, 7] [%] | Ki [1] [nM] | activation at 0.1 µM [2] [%] | Results of in vitro micronucleus assay [3] | activation at 0.1 µM [4] [%]
5 | CCn1cnc2c(-c3ccc(F)c(-c4cn5cc(C6CC6)nc5cc4OC)c3)cnnc21 [Example 37, 4-(3-(2-Cyclopropyl-7-methoxyimidazo[1,2-a]pyridin-6-yl)-4-fluorophenyl)-7-ethyl-7H-imidazo[4,5-c]pyridazine] |  |  |  | 6.39 | 79 | Negative | 74
6 | CCn1cnc2c(-c3ccc(F)c(-c4ccc(S(=O)(=O)CC)cc4OC)c3)cnnc21 [CVL-865, reference compound] |  |  |  |  | 100 | Positive | 100
7 | COc1c(-c2cc(-c3cnnc4c3ncn4C(C)C)ccc2F)ccn2c(C3CC3)nnc12 [Example 27, 4-(3-(3-Cyclopropyl-8-methoxy-[1,2,4]triazolo[4,3-a]pyridin-7-yl)-4-fluorophenyl)-7-isopropyl-7H-imidazo[4,5-c]pyridazine] | 6.05 | 110 | 4 |  |  |  | 
